# Results reported in US20230123334A1, “AMINO LIPID COMPOUND, PREPARATION METHOD THEREFOR, AND APPLICATION THEREOF” (SHENZHEN SHENXIN BIOTECHNOLOGY CO., LTD., priority 2020, published 2023).
# Tested on: HEK293 cells
# Assay: Preliminary screening as mRNA vectors, EGFP mRNA transfection of HEK293 cells
# Type: cell-based
# Conditions: EGFP mRNA 50 ng per well, 96-well plates; percentage of GFP fluorescent cells relative to total number of cells (Hoechst)
# Method: Cell line: HEK293 cells (ATCC CRL-1573™)
# Medium: DMEM supplemented with 10% fetal bovine serum (Invitrogen)
# Screening: cell transfection on 96-well plates
# Detection (readout): percentage of the number of GFP fluorescent cells relative to the total number of cells (the total number of cells was determined using nucleus dye Hoechst). Lipofectamine2000 (Invitrogen) was used as the positive control.
# Method: the experimental method was basically the same with Example 4, and the mass of EGFP mRNA (TriLink) for transfection was 50 ng per well.
row,SMILES,Absolute mRNA transfection efficiency in HEK293 cells
1,CCCCCCCCCCCCCCCCSc1nc(NCCCCCCCCC)nc(NCCN2CCN(C)CC2)n1 [Compound D5S16N9],68.1%
2,CCCCCCCCCCCCCCCSc1nc(NCCCCCCCCCCCCC)nc(NCC2CCN(C)CC2)n1 [Compound D10S15N13],5.4%
3,CCCCCCCCSc1nc(NCCCN2CCOCC2)nc(SCCCCCC)n1 [Compound D8S6S8],0.2%
4,CCCCCCCCCCCCCCCSc1nc(NCCCCCCCCC)nc(NCCCN(C)C)n1 [Compound D6S15N9],61.9%
5,CCCCCCCNc1nc(NCCN2CCCCC2)nc(SCCCCCC)n1 [Compound D4S6N7],0.0%
6,CCCCCCCCCCCCCCCSc1nc(NCCN2CCOCC2)nc(SCCCCCCC)n1 [Compound D2S7S15],17.5%
7,CCCCCCCCNc1nc(NCCN(C)C)nc(SCCCCCCC)n1 [Compound D1S7N8],2.0%
8,CCCCCCCCCCCCCCSc1nc(NCCCCCC)nc(NCCN2CCCC2)n1 [Compound D3S14N6],66.7%
9,CCCCCCCCCCCCCCCSc1nc(NCCCCCCCCCCC)nc(NCCCN2CCN(C)CC2)n1 [Compound D9S15N11],9.2%
10,CCCCCCCCCCSc1nc(NCC2CCN(C)CC2)nc(SCCCCCCC)n1 [Compound D10S7S10],55.8%
11,CCCCCCCSc1nc(NCCCCCC)nc(NCCCN(C)C)n1 [Compound D6S7N6],8.8%
12,CCCCCCCCCCCCCCCSc1nc(NCCCCCCCCC)nc(NCC2CCN(C)CC2)n1 [Compound D10S15N9],12.8%
13,CCCCCCCCCCCCSc1nc(NCCCCCCCCCCC)nc(NCCCN2CCOCC2)n1 [Compound D8S12N11],0.4%
14,CCCCCCCCCCCCCCSc1nc(NCCN2CCN(C)CC2)nc(SCCCCCCC)n1 [Compound D5S7S14],63.7%
15,CCCCCCCCCCCCCCCCNc1nc(NCCCN(C)C)nc(SCCCCCCCCCCCC)n1 [Compound D6S12N16],1.9%
16,CCCCCCCCCCSc1nc(NCCN(CC)CC)nc(SCCCCCCCC)n1 [Compound D7S8S10],7.6%
17,CCCCCCCCCSc1nc(NCCN(C)C)nc(SCCCCCCCC)n1 [Compound D1S8S9],7.4%
18,CCCCCCCCCCCNc1nc(NCCN2CCCCC2)nc(SCCCCCCCCCCC)n1 [Compound D4S11N11],2.0%
19,CCCCCCCCCCCCCCCCNc1nc(NCCCN2CCN(C)CC2)nc(SCCCCCCC)n1 [Compound D9S7N16],29.3%
20,CCCCCCCCCCSc1nc(NCCN(C)C)nc(SCCCCCCCC)n1 [Compound D1S8S10],8.6%
21,CCCCCCCCCCCSc1nc(NCCCN(C)C)nc(SCCCCCC)n1 [Compound D6S6S11],15.7%
22,CCCCCCCCCCCCSc1nc(NCCCN2CCOCC2)nc(N(CCCCCCCCCCCC)CCCCCCCCCCCC)n1 [D8S12^2N12],3.4%
23,CCCCCCCCCCCCCCCNc1nc(NCCN(CC)CC)nc(SCCCCCCCCCCC)n1 [Compound D7S11N15],6.5%
24,CCCCCCCCCCCCN(CCCCCCCCCCCC)c1nc(NCCN(C)C)nc(SCCCCCCCCC)n1 [D1S9^2N12],1.0%
25,CCCCCCCCCSc1nc(NCCCN2CCN(C)CC2)nc(SCCCCCC)n1 [Compound D9S6S9],5.6%

row,SMILES,Absolute mRNA transfection efficiency in HEK293 cells
1,CCCCCCCCCCCCCCCNc1nc(NCCCN2CCOCC2)nc(SCCCCCCC)n1 [Compound D8S7N15],2.8%
2,CCCCCCCCNc1nc(NCCN2CCCCC2)nc(SCCCCCCC)n1 [Compound D4S7N8],0.5%
3,CCCCCCCCSc1nc(NCCN(C)C)nc(SCCCCCCCC)n1 [Compound D1S8S8],11.7%
4,CCCCCCCCCCCSc1nc(NCCCCCCC)nc(NCCN(CC)CC)n1 [Compound D7S11N7],11.8%
5,CCCCCCCCCCCCCCCSc1nc(NCCN(CC)CC)nc(N(CCCCCCCCCCCC)CCCCCCCCCCCC)n1 [D7S15^2N12],1.8%
6,CCCCCCCCCCCCCCCCSc1nc(NCCCCCCCCC)nc(NCCCN2CCN(C)CC2)n1 [Compound D9S16N9],54.4%
7,CCCCCCCCCCCNc1nc(NCCN2CCCCC2)nc(SCCCCCCCC)n1 [Compound D4S8N11],0.3%
8,CCCCCCCCCCCCCCCCCCNc1nc(NCCN2CCOCC2)nc(SCCCCCCCCC)n1 [Compound D2S9N18],2.4%
9,CCCCCCCCCCCCCNc1nc(NCC2CCN(C)CC2)nc(SCCCCCCCC)n1 [Compound D10S8N13],75.0%
10,CCCCCCCCCCCNc1nc(NCCCN2CCN(C)CC2)nc(SCCCCCCCCCCC)n1 [Compound D9S11N11],24.5%
11,CCCCCCCCNc1nc(NCCN2CCN(C)CC2)nc(SCCCCCCCC)n1 [Compound D5S8N8],1.3%
12,CCCCCCCCCCCCSc1nc(NCCN2CCOCC2)nc(SCCCCCCCC)n1 [Compound D2S8S12],1.1%
13,CCCCCCCCCCCCCCCCSc1nc(NCCCCCCCC)nc(NCCCN2CCN(C)CC2)n1 [Compound D9S16N8],71.3%
14,CCCCCCCCCCCNc1nc(NCCN(C)C)nc(SCCCCCCCCC)n1 [Compound D1S9N11],53.0%
15,CCCCCCCCCCCCCCCSc1nc(NCCCCCCCCCCCCC)nc(NCCCN(C)C)n1 [Compound D6S15N13],0.8%
16,CCCCCCCCCCCCCCCCCCNc1nc(NCCN(CC)CC)nc(SCCCCCC)n1 [Compound D7S6N18],4.6%
17,CCCCCCCCCCCCCCCCCCNc1nc(NCCN(C)C)nc(SCCCCCCCCCCCCCCCC)n1 [Compound D1S16N18],0.5%
18,CCCCCCCCCCCCCCCCCCNc1nc(NCCCN2CCN(C)CC2)nc(SCCCCCCCCCCCCCCCC)n1 [Compound D9S16N18],0.1%
19,CCCCCCCCCCCCCCCSc1nc(NCCCCCCCCCCCCC)nc(NCCN(CC)CC)n1 [Compound D7S15N13],5.2%
20,CCCCCCCCCCCSc1nc(NCCN2CCN(C)CC2)nc(SCCCCCCC)n1 [Compound D5S7S11],42.0%
21,CCCCCCCCSc1nc(NCCCCCC)nc(NCCN(CC)CC)n1 [Compound D7S8N6],0.8%
22,CCCCCCCCCCCSc1nc(NCCN2CCCCC2)nc(SCCCCCCCC)n1 [Compound D4S8S11],10.9%
23,CCCCCCCCNc1nc(NCCCN2CCOCC2)nc(SCCCCCCC)n1 [Compound D8S7N8],1.8%
24,CCCCCCCCCCCCCCCCSc1nc(NCCCCCCCCCCC)nc(NCCN2CCCCC2)n1 [Compound D4S16N11],0.5%
25,CCCCCCCCCCCCCCCCSc1nc(NCCCCCCCCCCCCCCC)nc(NCCCN(C)C)n1 [Compound D6S16N15],0.1%
